Measured values from patent EP0314866A2, “Novel alkylated hormonereleasing peptides and method of treating mammals therewith” (The Administrators of The Tulane University Educational Fund, priority 1987, dated 1989).

Tested on: plasma growth hormone
Assay: Evaluation of peptides in vivo in sheep: plasma GH after IV injection of GRF analogs
Parameters: species or system wether lambs
Settings: lambs injected intravenously at 100 ng/kg; for Plasma GH (ng/ml) Post-inj Mean: two hours after treatment, means of 8 samples/animal from 8 animals
Method: The purpose of this experiment is to compare the GH releasing activities of several GRF analogs selected for expected high potency and the lack of either a terminal amide or a D-amino acid. The analogs to be compared in wether lambs at 100 ng/kg (IV) are tri-isopropyl-GRF(1-29)-NH₂, tri-isopropyl-GRF(1-29)-OH, tri-isopropyl-GRF(1-40)OH, D-ala², arg^12,21-GRF (1-29)-OH, D-ala², arg^12,21-GRF(1-29)-NH₂, GRF(1-40)-OH and GRF(1-29)-NH₂
A balanced 8 x 8 Latin square design will be used to test the following 8 treatments:
The diet used in these evaluations is a standard sheep diet (pelleted) and fresh water ad libitum. All animals are fed one daily.
The animals are individually identified by numbered ear tags and held in numbered metabolism cages.
Sheep are maintained in individual metabolism cages at all times. Each sheep has previously received an indwelling jugular cannula which is flushed daily with heparinized (400-800 IU/ml) sterile saline to help maintain patency.
All compounds are solubilized at 5 ug/ml in sterile saline containing 1% Tween 80 and injected intravenously at 100 ng/kg. Control lambs receive equal volumes of the vehicle only. The drugs are prepared each day just prior to injection to minimize sticking to the vials.
Blood is collected in heparinized tubes at 15 minute intervals for one hours prior to and for two hours after the treatments are administered. Plasma samples are removed by centrifugation and frozen.
Body weights of each animal is taken at the start of the experiment and once during treatment.
Blood samples are taken from each animal at 15 minute intervals for 3 hours each day during the 8 day trial period. The samples are analyzed for plasma growth hormone (ng/ml). Data obtained are reported below as near values obtained for each treatment.

Structure (SMILES)	Plasma GH (ng/ml) Peak	Plasma GH (ng/ml) Post-inj Mean
CC[C@H](C)[C@H](NC(=O)[C@H](C)NC(=O)[C@H](CC(=O)O)NC(=O)[C@H](C)NC(=O)[C@H](Cc1ccc(O)cc1)NC(C)C)C(=O)N[C@@H](Cc1ccccc1)C(=O)N[C@H](C(=O)N[C@@H](CC(N)=O)C(=O)N[C@@H](CO)C(=O)N[C@@H](Cc1ccc(O)cc1)C(=O)N[C@@H](CCCNC(=N)N)C(=O)N[C@@H](CCCCNC(C)C)C(=O)N[C@H](C(=O)N[C@@H](CC(C)C)C(=O)NCC(=O)N[C@@H](CCC(N)=O)C(=O)N[C@@H](CC(C)C)C(=O)N[C@@H](CO)C(=O)N[C@@H](C)C(=O)N[C@@H](CCCNC(=N)N)C(=O)N[C@@H](CCCCNC(C)C)C(=O)N[C@@H](CC(C)C)C(=O)N[C@@H](CC(C)C)C(=O)N[C@@H](CCC(N)=O)C(=O)N[C@@H](CC(=O)O)C(=O)N[C@H](C(=O)N[C@@H](CCSC)C(=O)N[C@@H](CO)C(=O)N[C@@H](CCCNC(=N)N)C(=O)N[C@@H](CCC(N)=O)C(=O)N[C@@H](CCC(N)=O)C(=O)NCC(=O)N[C@@H](CCC(=O)O)C(=O)N[C@@H](CO)C(=O)N[C@@H](CC(N)=O)C(=O)N[C@@H](CCC(N)=O)C(=O)N[C@@H](CCC(=O)O)C(=O)N[C@@H](CCCNC(=N)N)C(=O)NCC(=O)N[C@@H](C)C(=O)O)[C@@H](C)CC)C(C)C)[C@@H](C)O [tri-isopropyl-GRF(1-40)-OH, [N ^α-Isopropyl-Tyr¹, N ^ε-isopropyl-Lys^12,21]GRF(1-40)OH]	108.6 ng/mL	34.0 ng/mL
CC[C@H](C)[C@H](NC(=O)[C@H](C)NC(=O)[C@H](CC(=O)O)NC(=O)[C@H](C)NC(=O)[C@@H](N)Cc1ccc(O)cc1)C(=O)N[C@@H](Cc1ccccc1)C(=O)N[C@H](C(=O)N[C@@H](CC(N)=O)C(=O)N[C@@H](CO)C(=O)N[C@@H](Cc1ccc(O)cc1)C(=O)N[C@@H](CCCNC(=N)N)C(=O)N[C@@H](CCCCN)C(=O)N[C@H](C(=O)N[C@@H](CC(C)C)C(=O)NCC(=O)N[C@@H](CCC(N)=O)C(=O)N[C@@H](CC(C)C)C(=O)N[C@@H](CO)C(=O)N[C@@H](C)C(=O)N[C@@H](CCCNC(=N)N)C(=O)N[C@@H](CCCCN)C(=O)N[C@@H](CC(C)C)C(=O)N[C@@H](CC(C)C)C(=O)N[C@@H](CCC(N)=O)C(=O)N[C@@H](CC(=O)O)C(=O)N[C@H](C(=O)N[C@@H](CCSC)C(=O)N[C@@H](CO)C(=O)N[C@@H](CCCNC(=N)N)C(=O)N[C@@H](CCC(N)=O)C(=O)N[C@@H](CCC(N)=O)C(=O)NCC(=O)N[C@@H](CCC(=O)O)C(=O)N[C@@H](CO)C(=O)N[C@@H](CC(N)=O)C(=O)N[C@@H](CCC(N)=O)C(=O)N[C@@H](CCC(=O)O)C(=O)N[C@@H](CCCNC(=N)N)C(=O)NCC(=O)N[C@@H](C)C(=O)O)[C@@H](C)CC)C(C)C)[C@@H](C)O [GRF(1-40)-OH]	92.3 ng/mL	25.5 ng/mL
